Among the data in patent US20020049199A1, “N-linked carbamates and ureas of heterocyclic thioesters” (priority 1996, published 2002) are Ki and EC50 values, retold here.

For assay [1], the target named is FKBP (Homo sapiens, UniProt P62942). The experiment in a line: Ki test procedure: inhibition of peptidyl-prolyl isomerase (rotamase) activity, chymotrypsin-coupled assay. Type of assay: biochemical. Conditions: apparent Ki. An excerpt:
Inhibition of the peptidyl-prolyl isomerase (rotamase) activity of the inventive compounds can be evaluated by known methods described in the literature (Harding, et al., Nature, 1989, 341:758-760; Holt et al. J. Am. Chem. Soc., 115:9923-9938). The cis-trans isomerization of an alanine-proline bond in a model substrate, N-succinyl-Ala-Ala-Pro-Phe-p-nitroanilide, is monitored spectrophotometrically in a chymotrypsin-coupled assay, which releases para-nitroanilide from the trans form of the substrate. The inhibition of this reaction caused by the addition of different concentrations of inhibitor is determined, and the data is analyzed as a change in first-order rate constant as a function of inhibitor concentration to yield the apparent Ki values.
In a plastic cuvette are added […] of ice cold assay buffer (25 mM HEPES, pH 7.8, 100 mM NaCl), […] of FKBP (2.5 mM in 10 mM Tris-Cl pH 7.5, 100 mM NaCl, 1 mM dithiothreitol), 25 mL of chymotrypsin (50 mg/ml in 1 mM HCl) and […] of test compound at various concentrations in dimethyl sulfoxide. The reaction is initiated by the addition of 5 mL of substrate (succinyl-Ala-Phe-Pro-Phe-para-nitroanilide, 5 mg/mL in 2.35 mM LiCl in trifluoroethanol).
The absorbance at 390 nm versus time is monitored for 90 seconds using a spectrophotometer and the rate constants are determined from the absorbance versus time data files.
The data for these experiments for representative compounds are presented in Table II under the column “Ki”.

In assay [2] the test system is chick dorsal root ganglia. Kind of assay: Chick dorsal root ganglion cultures and neurite outgrowth. Type of assay: cell-based. Conditions: neurite outgrowth, 48 hours after drug treatment, Table II (b), ranked potency, read-out: ED50, nMa. Here is the method: Dorsal root ganglia were dissected from chick embryos of ten day gestation. Whole ganglion explants were cultured on thin layer Matrigel-coated 12 well plates with Liebovitz L15 plus high glucose media supplemented with 2 mM glutamine and 10% fetal calf serum, and also containing 10 μM cytosine β-D arabinofuranoside (Ara C) at 37° C. in an environment containing 5% CO2. Twenty-four hours later, the DRGs were treated with various immunophilin ligands. Forty-eight hours after drug treatment, the ganglia were visualized under phase contrast or Hoffman Modulation contrast with a Zeiss Axiovert inverted microscope. Photomicrographs of the explants were made, and neurite outgrowth was quantitated. Neurites longer than the DRG diameter were counted as positive, with total number of neurites quantitated per each experimental condition. Three to four DRGs are cultured per well, and each treatment was performed in duplicate.
The data for these experiments for representative compounds are presented in Table II under the column “ED50”.

pEC50: −log10 of the molar value. Like-named read-outs stand apart in the source and are kept apart here.

Chain of FKBP (P62942 whole entry): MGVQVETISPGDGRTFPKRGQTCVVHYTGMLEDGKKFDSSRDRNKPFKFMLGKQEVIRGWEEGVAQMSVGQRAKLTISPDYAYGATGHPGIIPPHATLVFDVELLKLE

On to “3,3-Diphenylpropyl (2S)-1-[(1,1,3,3-tetramethylbutyl)carbamoyl]-2-pyrrolidinecarbothioate [Compound 29]”, for which, in assay [1] (Table II (c), numerical), the Ki is 5150 nM. Further, the pEC50 in assay [2] was 6.70 to 7.29.

For “3,3-Diphenylpropyl (2S)-1-[(2,4-dimethoxyphenyl)carbamoyl]-2-pyrrolidinecarbothioate [Compound 33]”, the Ki in assay [1] (Table II (a), ranked potency) was over 500 nM.

Consider “3-(2,3,5-Trimethylphenyl)propyl 1-(1-adamantylcarbamoyl)-2-pyrrolidinecarbothioate [Compound 19]”, for which the Ki in assay [1] (Table II (a), ranked potency) was 201 to 500 nM. Besides, the pEC50 in assay [2] is 6.70 to 7.29.

In the case of “3-(2,3,5-Trimethylphenyl)propyl 1-(cyclohexylcarbamoyl)-2-pyrrolidinecarbothioate [Compound 20]”, in assay [1] (Table II (a), ranked potency), the Ki lay in the range of 51 to 200 nM. For the same compound, the pEC50 in assay [2] was 7.30 to 9.00.

As to “3-(2-Fluorophenyl)propyl (2S)-1-(1-adamantylcarbamoyl)-2-pyrrolidinecarbothioate [Compound 22]”, the Ki in assay [1] (Table II (a), ranked potency) lay in the range of 1 to 50 nM. Also, the pEC50 in assay [2] was over 9.00.

Turning to “3-(2-Fluorophenyl)propyl (2S)-1-(cyclohexylcarbamoyl)-2-pyrrolidinecarbothioate [Compound 23]”, the Ki in assay [1] (Table II (a), ranked potency) lay within 1 to 50 nM. The pEC50 in assay [2] is 7.30 to 9.00.

For the compound “3-(3,4,5-Trimethoxyphenyl)propyl (2S)-1-(benzylcarbamoyl)-2-pyrrolidinecarbothioate [Compound 40]”, the Ki in assay [1] (Table II (c), numerical) came out at 82 nM.

Consider “3-(3,4,5-Trimethoxyphenyl)propyl (2S)-1-(hexylcarbamoyl)-2-pyrrolidinecarbothioate [Compound 39]”, for which the Ki in assay [1] (Table II (c), numerical) was found to be 31 nM.

With “3-(3,5-Dimethoxyphenyl)propyl (2S)-1-{[(1S)-1-(1-naphthyl)ethyl]-carbamoyl}-2-pyrrolidinecarbothioate [Compound 28]”, the Ki in assay [1] (Table II (c), numerical) came to 8090 nM. Besides, the pEC50 in assay [2] is over 9.00.

Regarding “3-(3,5-Dimethoxyphenyl)propyl (2S)-1-{[(1S,2R)-2-phenyl-cyclopropyl]carbamoyl]-2-pyrrolidinecarbothioate [Compound 34]”, the Ki in assay [1] (Table II (a), ranked potency) is over 500 nM.

On to “3-(3-Fluorophenyl)propyl (2S)-1-(Cyclohexylcarbamoyl)-2-pyrrolidinecarbothioate [Compound 21]”, for which, in assay [1] (Table II (a), ranked potency), the Ki lay within 1 to 50 nM. In addition, the pEC50 in assay [2] was over 9.00.

For “3-(4-Methylphenyl)propyl (2S)-1-(1-adamantylcarbamoyl)-2-pyrrolidinecarbothioate [Compound 25]”, the Ki in assay [1] (Table II (c), numerical) came to 209 nM. Further, the pEC50 in assay [2] is 7.30 to 9.00.

Turning to “3-(4-Methylphenyl)propyl (2S)-1-(cyclohexylcarbamoyl)-2-pyrrolidinecarbothioate [Compound 24]”, in assay [1] (Table II (c), numerical), the Ki came to 605 nM. Further, in assay [2], the pEC50 is 7.30 to 9.00.

For “3-(4-Methylphenyl)propyl (2S)-1-(tert-butylcarbamoyl)-2-pyrrolidinecarbothioate [Compound 26]”, the Ki in assay [1] (Table II (c), numerical) is 739 nM. Further, the pEC50 in assay [2] was over 9.00.

Take “3-Cyclohexylpropyl (2S)-1-(hexylcarbamoyl)-2-pyrrolidinecarbothioate [Compound 32]”: the Ki in assay [1] (Table II (a), ranked potency) is over 500 nM.

For the compound “3-Cyclohexylpropyl (2S)-1-[(2,6-diisopropylphenyl)carbamoyl]-2-pyrrolidinecarbothioate [Compound 31]”, the Ki in assay [1] (Table II (a), ranked potency) was over 500 nM.

Take “3-Phenylpropyl (2S)-1-(1-adamantylcarbamoyl)-2-pyrrolidinecarbothioate [Compound 36]”: the Ki in assay [1] (Table II (a), ranked potency) lay in the range of 201 to 500 nM.

On to “3-Phenylpropyl (2S)-1-(1-cyclohexylcarbamoyl)-2-pyrrolidinecarbothioate [Compound 17]”, for which the Ki in assay [1] (Table II (a), ranked potency, listed as 4) lay in the range of 51 to 200 nM. In addition, the pEC50 in assay [2] is 6.70 to 7.29.

In the case of “3-Phenylpropyl (2S)-1-(1-cyclohexylcarbamoyl)-2-pyrrolidinecarbothioate [Compound 37]”, the Ki in assay [1] (Table II (a), ranked potency, listed as 23) is over 500 nM.

For “3-Phenylpropyl (2S)-1-(1-pyrrolidinylcarbamoyl)-2-pyrrolidinecarbothioate [Compound 42]”, the Ki in assay [1] (Table II (c), numerical) is 525 nM.

Turning to “3-Phenylpropyl (2S)-1-(dimethylcarbamoyl)-2-pyrrolidinecarbothioate [Compound 41]”, the Ki in assay [1] (Table II (c), numerical) worked out at 722 nM.

Regarding “3-Phenylpropyl (2S)-1-[(2,4-Dimethoxyphenyl)carbamoyl]-2-pyrrolidinecarbothioate [Compound 35]”, the Ki is over 500 nM in assay [1] (Table II (a), ranked potency) and 795 nM in assay [1] (Table II (c), numerical, listed as 21).

As for `CCC(C)CNC(=O)N1CCC[C@H]1C(=O)SCCCc1cccnc1` (stereo partly drawn) [Compound 1, 3-(3-Pyridyl)-1-propylmercaptyl 2S-1-[(2-methylbutyl)carbamoyl]pyrrolidine-2-carboxylate], the Ki in assay [1] (Table II (a), ranked potency) lay within 1 to 50 nM. Also, the pEC50 in assay [2] (Gallus gallus) is over 9.00.

`CCC(C)(C)NC(=O)N1CCC[C@H]1C(=O)SCCCc1cccnc1` [Compound 2]: the Ki in assay [1] (Table II (a), ranked potency) lay in the range of 51 to 200 nM. In addition, the pEC50 in assay [2] (Gallus gallus) is 7.30 to 9.00.

For the compound `O=C(SCCCc1cccnc1)[C@@H]1CCCN1C(=S)NC1CCCCC1` [Compound 7, 3-(3-pyridyl)-1-propylmercaptyl 2S-1-[(cyclohexyl)thiocarbamoyl]-pyrrolidine-2-carboxylate], the Ki in assay [1] (Table II (a), ranked potency) was in the range of 51 to 200 nM. In assay [2], the pEC50 is 7.30 to 9.00.

As for `O=C(SCCCc1ccccc1Cl)[C@@H]1CCCN1C(=O)NC1CCCCC1` [Compound 27], the Ki in assay [1] (Table II (c), numerical) came out at 1490 nM. In addition, the pEC50 in assay [2] was 7.30 to 9.00.

As to `O=C(SCCCc1ccccc1)[C@@H]1CCCN1C(=S)NC12CC3CC(CC(C3)C1)C2` [Compound 38], in assay [1] (Table II (c), numerical), the Ki stood at 659 nM.

Take `O=C(SCCCc1ccccc1)[C@@H]1CCCN1C(=O)N1CCOCC1` [Compound 43, 3-Phenylpropyl (2S)-1-(morphilinocarbamoyl)-2-pyrrolidinecarbothioate]: the Ki in assay [1] (Table II (c), numerical) stood at 3740 nM.

Regarding “Phenethyl (2S)-N-(cyclohexylcarbamoyl)-2-pyrrolidinecarbothioate [Compound 18]”, in assay [1] (Table II (a), ranked potency), the Ki lay in the range of 51 to 200 nM. Also, the pEC50 in assay [2] was 7.30 to 9.00.
